Measured values taken from US9187773B2, “Method for improving acid tolerance of Propionibacterium acidipropionici” (Jiangnan University, priority 2012, dated 2015).

Assays:
Assay type in all cases: cell-based, Propionibacterium acidipropionici
P. acidipropionici [1] = assay: Acid tolerance of P. acidipropionici with amino acid addition (growth in seed medium containing PA); conditions: for Acid tolerance: seed medium with 2.5-5 g/L PA, 30° C., 40 h; for increase of the acid concentration that P. acidipropionici can tolerate: with addition of the amino acid, versus 2.5 g/L PA without amino acid
Procedure: The present invention provides a method for improving acid tolerance of P. acidipropionici by adding arginine and/or aspartic acid in the culture.
P. acidipropionici was first inoculated with sterile seed medium in anaerobic jars. The anaerobic jars were incubated at 30° C. for 60 h. To determine the effects of adding amino acids on acid tolerance of P. acidipropionici, the culture broth was transferred into anaerobic jars containing fresh seed medium with 2.5-5 g/L PA, 5-30 mM arginine and/or 5-30 mM aspartic acid added. The strains were then incubated at 30° C. for 40 h.
The P. acidipropionici was bought from China General Microbiological Culture Collection, and the strain code is CGMCC 1.2230.
The seed medium: 10 g/L yeast extract, 5 g/L tryptic soy broth, 1.5 g/L KH2PO4, 2.5 g/L K2HPO4, pH 7.0.
(§1) To determine the effects of adding arginine on acid tolerance of P. acidipropionici, the strains were inoculated with an inoculum size of 1% (v/v) into anaerobic jars containing 100 mL sterile seed medium. The anaerobic jars were incubated at 30° C. for 60 hours. And then, the culture broth was transferred into anaerobic jars containing fresh seed medium with 2.5-5 g/L PA and 0-30 mM arginine by an inoculum size of 1% (v/v) and incubated at 30° C. for 40 hours.
as §1, with “of adding aspartic acid on acid” for “of adding arginine on acid”, “jars containing (volume: 100 mL) 100 mL” for “jars containing 100 mL”, “0-30 mM aspartic acid by an” for “0-30 mM arginine by an”

P. acidipropionici [2] = assay: PA production of P. acidipropionici with amino acid addition (fermentation, HPLC analysis); conditions: 30° C., 150 h
Procedure: To determine the effects of adding amino acids on PA production of P. acidipropionici, P. acidipropionici was inoculated with sterile seed medium in anaerobic jars. The anaerobic jars were incubated at 30° C. for 60 h. The culture broth was then transferred into anaerobic jars containing fresh culture medium. The PA fermentations with culture medium with or without addition of arginine and aspartic acid. The PA fermentations with culture medium without addition of arginine and aspartic acid were used as control.
The culture medium: 10 g/L yeast extract, 5 g/L tryptone, 1.5 g/L KH2PO4, 2.5 g/L K2HPO4, 25 g/L glycerol, 10 mg/L CoCl2, 30 g/L CaCO3, 5-30 mM arginine and/or 5-30 mM aspartic acid, pH 7.0.
(§2) To determine the effects of adding arginine on PA production of P. acidipropionici, the strains were inoculated with an inoculum size of 1% (v/v) into anaerobic jars containing 100 mL sterile seed medium. And then the seed culture was inoculated with an inoculum size of 10% (v/v) into anaerobic jars (volume: 100 mL) containing 50 mL culture medium into which certain amount of arginine was added. The anaerobic jars were incubated at 30° C. for 150 h.
(§3) Fermentation broth was centrifuged at 8000 rpm for 5 min, and the supernatant liquid was collected for analysis of PA. The supernatant liquid was diluted by 10 times with 3.68 mol/L sulphuric acid and then filtered with 0.22 μm pore size filter. The samples were analyzed by HPLC. As shown in Table 1 and FIG. 2, addition of amino acids increased PA production.
as §2, with “aspartic acid” for “arginine”, “hours.” for “h.”
as §3, with “Table 2” for “Table 1”

P. acidipropionici [3] = assay: as above
[4] = amino acid concentration 10 mM in culture medium
[5] = amino acid concentration 20 mM in culture medium
[6] = amino acid concentration 30 mM in culture medium

Row | SMILES | Acid tolerance (P. acidipropionici [1]; amino acid concentration 10 mM) | Acid tolerance (P. acidipropionici [1]; amino acid concentration 20 mM) | Acid tolerance (P. acidipropionici [1]; amino acid concentration 30 mM) | increase of the acid concentration that P. acidipropionici can tolerate (P. acidipropionici [1]) | PA production (P. acidipropionici [2]; [4]) | PA production (P. acidipropionici [2]; [5]) | PA production (P. acidipropionici [2]; [6]) | PA production (P. acidipropionici [3]; 30 mM added at the logarithmic phase of fermentation) | PA production (P. acidipropionici [3]; 30 mM added at the stable phase of fermentation) | PA production (P. acidipropionici [3]; 20 mM added at the logarithmic phase of fermentation) | PA production (P. acidipropionici [3]; 20 mM added at the stable phase of fermentation)
1 | N=C(N)NCCC[C@H](N)C(=O)O [Arginine, arginine] | 3 g/L | 4 g/L | 4 g/L | 60% | 10.66 g/L | 10.60 g/L | 13.99 g/L | 12.60 g/L | 10.65 g/L |  | 
2 | N[C@@H](CC(=O)O)C(=O)O [Aspartic acid, aspartic acid] | 2.5 g/L | 3 g/L | 3 g/L | 20% | 12.54 g/L | 12.97 g/L | 12.87 g/L |  |  | 12.75 g/L | 10.66 g/L
